Measurements published in paper PMC8385062, “Deciphering ion transport and ATPase coupling in the intersubunit tunnel of KdpFABC” (Nature Communications, 2021).

Target: T1, KdpFABC (nucleotide / vanadate rows, site in KdpB) (Escherichia coli, UniProt P03960, D307N)
T1 construct: heterotetrameric complex, His-tagged KdpC, pBXC3H vector, produced in E. coli LB2003 (lacks endogenous K+ uptake systems), purified; Potassium-transporting ATPase KdpC subunit; Potassium-transporting ATPase KdpF subunit
T1 sequence (P03960 whole entry D307N): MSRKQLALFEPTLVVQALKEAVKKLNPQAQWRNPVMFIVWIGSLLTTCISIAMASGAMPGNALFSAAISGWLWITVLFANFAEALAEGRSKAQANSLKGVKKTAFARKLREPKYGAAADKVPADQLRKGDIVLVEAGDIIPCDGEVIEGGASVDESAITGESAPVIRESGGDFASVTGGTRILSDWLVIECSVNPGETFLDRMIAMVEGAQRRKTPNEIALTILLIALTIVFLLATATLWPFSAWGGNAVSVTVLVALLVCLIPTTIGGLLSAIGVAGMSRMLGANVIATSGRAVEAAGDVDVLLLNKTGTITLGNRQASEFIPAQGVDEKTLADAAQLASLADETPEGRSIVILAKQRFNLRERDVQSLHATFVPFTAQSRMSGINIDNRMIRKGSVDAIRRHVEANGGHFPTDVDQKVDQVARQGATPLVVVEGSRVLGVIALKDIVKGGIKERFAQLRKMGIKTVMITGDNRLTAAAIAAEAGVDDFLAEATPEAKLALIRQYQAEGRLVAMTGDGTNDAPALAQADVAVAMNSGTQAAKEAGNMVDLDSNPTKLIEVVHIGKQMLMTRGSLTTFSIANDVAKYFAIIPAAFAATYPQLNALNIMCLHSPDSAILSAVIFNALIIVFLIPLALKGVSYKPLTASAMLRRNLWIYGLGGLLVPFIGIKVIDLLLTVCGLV
T1 sequence (P03959 whole entry partner): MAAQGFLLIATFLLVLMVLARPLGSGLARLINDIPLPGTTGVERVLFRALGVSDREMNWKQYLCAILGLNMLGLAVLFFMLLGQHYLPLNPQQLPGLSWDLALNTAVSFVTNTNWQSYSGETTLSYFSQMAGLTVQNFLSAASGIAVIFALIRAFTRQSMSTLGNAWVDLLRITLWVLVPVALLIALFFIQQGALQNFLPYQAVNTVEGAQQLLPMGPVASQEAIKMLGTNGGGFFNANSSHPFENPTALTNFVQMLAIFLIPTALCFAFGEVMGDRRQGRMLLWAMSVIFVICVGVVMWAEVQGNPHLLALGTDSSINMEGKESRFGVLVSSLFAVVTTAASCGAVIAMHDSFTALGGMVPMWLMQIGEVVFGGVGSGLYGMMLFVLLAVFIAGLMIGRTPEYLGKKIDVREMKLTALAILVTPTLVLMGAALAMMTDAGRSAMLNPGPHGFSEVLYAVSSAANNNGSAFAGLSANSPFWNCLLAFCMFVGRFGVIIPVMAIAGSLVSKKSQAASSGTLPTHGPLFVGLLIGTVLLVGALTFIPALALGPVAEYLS
T1 sequence (P03961 whole entry partner): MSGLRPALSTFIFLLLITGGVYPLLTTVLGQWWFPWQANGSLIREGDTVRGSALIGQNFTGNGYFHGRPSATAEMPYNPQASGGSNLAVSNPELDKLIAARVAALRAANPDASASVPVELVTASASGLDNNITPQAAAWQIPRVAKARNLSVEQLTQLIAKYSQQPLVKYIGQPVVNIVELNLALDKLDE
T1 sequence (P36937 whole entry partner): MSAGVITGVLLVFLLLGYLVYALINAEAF
Assay: cryo-EM structure, […] Å
Assay type: binding
Details: 5 mM AMPPCP, 50 mM KCl; between N and P domains of KdpB, E1·ATP state

Nc1ncnc2c1ncn2[C@@H]1O[C@H](COP(=O)(O)OP(=O)(O)CP(=O)(O)O)[C@@H](O)[C@H]1O [AMPPCP]
cryo-EM structure, 3.1 Å: The nucleotide AMPPCP is coordinated between the N and P domains
